Among the data in the NIST ThermoML archive (doi:10.1016/j.jct.2011.09.028) are activity coefficient values, retold here.

Numbers after ± are expanded uncertainties.

This data set can be described thus: activity coefficient (dimensionless); of the first substance listed, at infinite dilution; xn = mol fraction of the nth substance listed. To be noted: 101 kPa, Liquid, Chromatography, x1 = 0.

As to `C[N+](=O)[O-]` [nitromethane] + CCn1cc[n+](C)c1.N#C[B-](C#N)(C#N)C#N, the activity coefficient was found to be 0.419 ± 0.029 (318.15 K); 0.421 ± 0.029 (323.15 K); 0.423 ± 0.029 (333.15 K); 0.426 ± 0.029 (343.15 K); 0.429 ± 0.029 (353.15 K).

Turning to `CO` [methanol] + CCn1cc[n+](C)c1.N#C[B-](C#N)(C#N)C#N, the activity coefficient turned out to be 0.917 ± 0.041 (318.15 K); 0.89 ± 0.04 (323.15 K); 0.84 ± 0.039 (333.15 K); 0.795 ± 0.038 (343.15 K); 0.755 ± 0.036 (353.15 K).

For `CCCO` [propan-1-ol] + CCn1cc[n+](C)c1.N#C[B-](C#N)(C#N)C#N, the activity coefficient (318.15 K) was determined as 1.62 ± 0.08; the activity coefficient (323.15 K) was determined as 1.55 ± 0.08; the activity coefficient (333.15 K) came out at 1.42 ± 0.07; the activity coefficient (343.15 K) came out at 1.31 ± 0.06; the activity coefficient (353.15 K) turned out to be 1.22 ± 0.06.

Turning to `COC(C)=O` [methyl ethanoate] + CCn1cc[n+](C)c1.N#C[B-](C#N)(C#N)C#N, the activity coefficient worked out at 0.653 ± 0.034 (318.15 K); 0.662 ± 0.034 (323.15 K); 0.682 ± 0.034 (333.15 K); 0.7 ± 0.035 (343.15 K); 0.723 ± 0.036 (353.15 K).

Take `Cc1cccc(C)c1` [1,3-dimethylbenzene] + CCn1cc[n+](C)c1.N#C[B-](C#N)(C#N)C#N: the activity coefficient reads like this: (318.15 K) 2.62 ± 0.13; (323.15 K) 2.62 ± 0.13; (333.15 K) 2.63 ± 0.13; (343.15 K) 2.63 ± 0.13; (353.15 K) 2.64 ± 0.14.

As to `CCc1ccccc1` [ethylbenzene] + CCn1cc[n+](C)c1.N#C[B-](C#N)(C#N)C#N, the activity coefficient reads like this: (318.15 K) 2.62 ± 0.13; (323.15 K) 2.61 ± 0.13; (333.15 K) 2.61 ± 0.13; (343.15 K) 2.61 ± 0.13; (353.15 K) 2.61 ± 0.13.

As for `CCCCCCCC` [octane] + CCn1cc[n+](C)c1.N#C[B-](C#N)(C#N)C#N, the activity coefficient is 64.2 ± 3.3 (318.15 K); 61.2 ± 3.2 (323.15 K); 55.8 ± 2.9 (333.15 K); 51 ± 2.7 (343.15 K); 47 ± 2.4 (353.15 K).

`CC#N` [acetonitrile] + CCn1cc[n+](C)c1.N#C[B-](C#N)(C#N)C#N: the activity coefficient stood at 0.428 ± 0.029 (318.15 K); 0.43 ± 0.029 (323.15 K); 0.43 ± 0.029 (333.15 K); 0.431 ± 0.029 (343.15 K); 0.432 ± 0.029 (353.15 K).

Turning to `CC(C)=O` [acetone] + CCn1cc[n+](C)c1.N#C[B-](C#N)(C#N)C#N, the activity coefficient by setting is: (318.15 K) 0.437 ± 0.029; (323.15 K) 0.443 ± 0.03; (333.15 K) 0.454 ± 0.03; (343.15 K) 0.466 ± 0.03; (353.15 K) 0.479 ± 0.03.

For the molecule `ClCCl` [dichloromethane] + CCn1cc[n+](C)c1.N#C[B-](C#N)(C#N)C#N, the activity coefficient runs as follows: (318.15 K) 0.656 ± 0.034; (323.15 K) 0.665 ± 0.034; (333.15 K) 0.682 ± 0.034; (343.15 K) 0.698 ± 0.035; (353.15 K) 0.714 ± 0.035.

Consider `COC(C)(C)C` [2-methoxy-2-methylpropane] + CCn1cc[n+](C)c1.N#C[B-](C#N)(C#N)C#N, for which the activity coefficient reads like this: (318.15 K) 2.77 ± 0.14; (323.15 K) 2.8 ± 0.14; (333.15 K) 2.85 ± 0.15; (343.15 K) 2.9 ± 0.15; (353.15 K) 2.95 ± 0.15.

On to `C1CCOC1` [tetrahydrofuran] + CCn1cc[n+](C)c1.N#C[B-](C#N)(C#N)C#N, for which the activity coefficient reads like this: (318.15 K) 0.699 ± 0.035; (323.15 K) 0.709 ± 0.035; (333.15 K) 0.727 ± 0.036; (343.15 K) 0.744 ± 0.036; (353.15 K) 0.761 ± 0.037.

On to `ClC(Cl)Cl` [trichloromethane] + CCn1cc[n+](C)c1.N#C[B-](C#N)(C#N)C#N, for which the activity coefficient (318.15 K) stood at 0.812 ± 0.038; the activity coefficient (323.15 K) worked out at 0.829 ± 0.038; the activity coefficient (333.15 K) came out at 0.863 ± 0.039; the activity coefficient (343.15 K) amounted to 0.895 ± 0.04; the activity coefficient (353.15 K) came to 0.926 ± 0.041.

With `CCOC(C)=O` [ethyl acetate] + CCn1cc[n+](C)c1.N#C[B-](C#N)(C#N)C#N, the activity coefficient (318.15 K) came out at 0.989 ± 0.043; the activity coefficient (323.15 K) was determined as 1 ± 0.04; the activity coefficient (333.15 K) was found to be 1.02 ± 0.05; the activity coefficient (343.15 K) is 1.04 ± 0.05; the activity coefficient (353.15 K) is 1.06 ± 0.05.

Take `ClC(Cl)(Cl)Cl` [tetrachloromethane] + CCn1cc[n+](C)c1.N#C[B-](C#N)(C#N)C#N: the activity coefficient (318.15 K) stood at 3.56 ± 0.18; the activity coefficient (323.15 K) came to 3.56 ± 0.18; the activity coefficient (333.15 K) was found to be 3.55 ± 0.18; the activity coefficient (343.15 K) is 3.54 ± 0.18; the activity coefficient (353.15 K) is 3.53 ± 0.18.

Take `c1ccccc1` [benzene] + CCn1cc[n+](C)c1.N#C[B-](C#N)(C#N)C#N: the activity coefficient came to 1.15 ± 0.05 (318.15 K); 1.15 ± 0.05 (323.15 K); 1.17 ± 0.05 (333.15 K); 1.18 ± 0.05 (343.15 K); 1.19 ± 0.05 (353.15 K).

For `CCC1CCCCC1` [ethylcyclohexane] + CCn1cc[n+](C)c1.N#C[B-](C#N)(C#N)C#N, the activity coefficient (318.15 K) amounted to 318 ± 17; the activity coefficient (323.15 K) is 323 ± 17; the activity coefficient (333.15 K) came out at 333 ± 17; the activity coefficient (343.15 K) is 343 ± 18; the activity coefficient (353.15 K) was determined as 353 ± 18.

For the molecule `COC(=O)OC` [dimethyl carbonate] + CCn1cc[n+](C)c1.N#C[B-](C#N)(C#N)C#N, the activity coefficient is 0.528 ± 0.031 (318.15 K); 0.535 ± 0.031 (323.15 K); 0.549 ± 0.031 (333.15 K); 0.563 ± 0.032 (343.15 K); 0.576 ± 0.032 (353.15 K).

In the case of `CCO` [ethanol] + CCn1cc[n+](C)c1.N#C[B-](C#N)(C#N)C#N, the activity coefficient (318.15 K) was 1.3 ± 0.06; the activity coefficient (323.15 K) is 1.25 ± 0.06; the activity coefficient (333.15 K) worked out at 1.15 ± 0.05; the activity coefficient (343.15 K) amounted to 1.07 ± 0.05; the activity coefficient (353.15 K) was 1 ± 0.04.

Consider `CCCCCCC` [heptane] + CCn1cc[n+](C)c1.N#C[B-](C#N)(C#N)C#N, for which the activity coefficient was 42.4 ± 2.2 (318.15 K); 40.7 ± 2.1 (323.15 K); 37.5 ± 1.9 (333.15 K); 34.8 ± 1.8 (343.15 K); 32.3 ± 1.7 (353.15 K).

For the molecule `CCC(C)=O` [butanone] + CCn1cc[n+](C)c1.N#C[B-](C#N)(C#N)C#N, the activity coefficient is, setting by setting: (318.15 K) 0.577 ± 0.032; (323.15 K) 0.584 ± 0.032; (333.15 K) 0.605 ± 0.033; (343.15 K) 0.611 ± 0.033; (353.15 K) 0.626 ± 0.033.

For the molecule `C=CCCCCCC` [oct-1-ene] + CCn1cc[n+](C)c1.N#C[B-](C#N)(C#N)C#N, the activity coefficient runs as follows: (318.15 K) 28.8 ± 1.5; (323.15 K) 27.8 ± 1.4; (333.15 K) 26.1 ± 1.4; (343.15 K) 24.6 ± 1.3; (353.15 K) 23.3 ± 1.2.

For the molecule `C1CCCCC1` [cyclohexane] + CCn1cc[n+](C)c1.N#C[B-](C#N)(C#N)C#N, the activity coefficient was found to be 13.8 ± 0.7 (318.15 K); 13.4 ± 0.7 (323.15 K); 12.5 ± 0.6 (333.15 K); 11.8 ± 0.6 (343.15 K); 11.1 ± 0.6 (353.15 K).

As to `FC(F)(F)C(Cl)Br` (stereo not given) [1-bromo-1-chloro-2,2,2-trifluoroethane] + CCn1cc[n+](C)c1.N#C[B-](C#N)(C#N)C#N, the activity coefficient (318.15 K) is 1.16 ± 0.05; the activity coefficient (323.15 K) stood at 1.19 ± 0.05; the activity coefficient (333.15 K) amounted to 1.28 ± 0.06; the activity coefficient (343.15 K) was 1.34 ± 0.06; the activity coefficient (353.15 K) amounted to 1.41 ± 0.07.

Regarding `CC(C)O` [propan-2-ol] + CCn1cc[n+](C)c1.N#C[B-](C#N)(C#N)C#N, the activity coefficient is, setting by setting: (318.15 K) 1.63 ± 0.08; (323.15 K) 1.56 ± 0.08; (333.15 K) 1.43 ± 0.07; (343.15 K) 1.32 ± 0.06; (353.15 K) 1.23 ± 0.06.

For the molecule `c1ccsc1` [thiophene] + CCn1cc[n+](C)c1.N#C[B-](C#N)(C#N)C#N, the activity coefficient reads like this: (318.15 K) 0.942 ± 0.042; (323.15 K) 0.947 ± 0.042; (333.15 K) 0.957 ± 0.042; (343.15 K) 0.967 ± 0.043; (353.15 K) 0.978 ± 0.043.

`Cc1ccccc1` [toluene] + CCn1cc[n+](C)c1.N#C[B-](C#N)(C#N)C#N: the activity coefficient runs as follows: (318.15 K) 1.68 ± 0.08; (323.15 K) 1.69 ± 0.08; (333.15 K) 1.71 ± 0.09; (343.15 K) 1.72 ± 0.09; (353.15 K) 1.74 ± 0.09.

On to `CC1CCCCC1` [methylcyclohexane] + CCn1cc[n+](C)c1.N#C[B-](C#N)(C#N)C#N, for which the activity coefficient reads like this: (318.15 K) 20.4 ± 1.1; (323.15 K) 19.7 ± 1; (333.15 K) 18.4 ± 1; (343.15 K) 17.2 ± 0.9; (353.15 K) 16.3 ± 0.8.

With `COCCOC` [1,2-dimethoxyethane] + CCn1cc[n+](C)c1.N#C[B-](C#N)(C#N)C#N, the activity coefficient (318.15 K) came out at 0.452 ± 0.03; the activity coefficient (323.15 K) worked out at 0.47 ± 0.03; the activity coefficient (333.15 K) worked out at 0.505 ± 0.031; the activity coefficient (343.15 K) is 0.539 ± 0.031; the activity coefficient (353.15 K) is 0.574 ± 0.032.

Regarding `CC(C)OC(C)C` [diisopropyl ether] + CCn1cc[n+](C)c1.N#C[B-](C#N)(C#N)C#N, the activity coefficient is, setting by setting: (318.15 K) 7.07 ± 0.36; (323.15 K) 7.08 ± 0.36; (333.15 K) 7.1 ± 0.37; (343.15 K) 7.11 ± 0.37; (353.15 K) 7.13 ± 0.37.
